Experimental data: article PMC4147353 (Nature Communications, 2014)
Blank lines part the entries; values can stand above or below the molecule they belong to.

Key:
[1] = format: physicochemical; details: 1 mM DTT or 0.5 mM TCEP, 30 °C for 1 h, DUB assay conditions; data not shown
panel of 32 DUBs = format: biochemical, human
USP7 = USP7 (Homo sapiens, UniProt Q93009); assay: MALDI-TOF DUB assay, inhibitor IC50 on USP7; format: biochemical; details: for potency for USP7 relative to the second most sensitive DUB on the panel (USP21): from IC50 values
USP7, sequence (Q93009 whole entry): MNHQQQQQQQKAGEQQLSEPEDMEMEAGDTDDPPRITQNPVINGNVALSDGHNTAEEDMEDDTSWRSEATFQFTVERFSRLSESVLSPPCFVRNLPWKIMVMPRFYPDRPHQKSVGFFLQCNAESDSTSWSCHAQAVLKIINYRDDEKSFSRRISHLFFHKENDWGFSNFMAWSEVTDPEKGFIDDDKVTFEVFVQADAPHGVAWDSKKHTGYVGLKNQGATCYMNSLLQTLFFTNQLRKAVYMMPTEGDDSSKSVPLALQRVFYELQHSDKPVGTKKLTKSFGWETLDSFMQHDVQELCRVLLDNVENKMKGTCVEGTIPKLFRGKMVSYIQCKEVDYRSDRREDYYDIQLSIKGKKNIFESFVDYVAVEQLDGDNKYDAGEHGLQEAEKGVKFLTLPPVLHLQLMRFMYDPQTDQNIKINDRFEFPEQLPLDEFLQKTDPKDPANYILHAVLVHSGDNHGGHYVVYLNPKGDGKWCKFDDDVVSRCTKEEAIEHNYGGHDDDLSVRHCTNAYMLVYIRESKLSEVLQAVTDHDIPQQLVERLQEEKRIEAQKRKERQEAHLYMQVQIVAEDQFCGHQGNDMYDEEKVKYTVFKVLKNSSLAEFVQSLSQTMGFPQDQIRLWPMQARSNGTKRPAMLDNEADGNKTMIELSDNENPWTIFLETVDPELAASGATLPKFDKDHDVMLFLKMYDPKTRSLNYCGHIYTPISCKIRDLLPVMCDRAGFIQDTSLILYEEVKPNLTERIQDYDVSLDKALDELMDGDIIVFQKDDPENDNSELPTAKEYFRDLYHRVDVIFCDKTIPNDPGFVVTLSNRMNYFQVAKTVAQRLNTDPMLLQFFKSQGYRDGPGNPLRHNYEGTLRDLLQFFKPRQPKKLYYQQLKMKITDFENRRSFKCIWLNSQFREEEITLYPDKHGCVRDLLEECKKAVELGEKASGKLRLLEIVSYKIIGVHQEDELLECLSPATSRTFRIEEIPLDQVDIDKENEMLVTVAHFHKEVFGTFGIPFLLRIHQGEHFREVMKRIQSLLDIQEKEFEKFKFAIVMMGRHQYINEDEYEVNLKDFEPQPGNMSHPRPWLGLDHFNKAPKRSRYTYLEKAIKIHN

Compound: CCC[C@H](NC(=O)/C(C#N)=C/c1cccc(Br)n1)c1ccccc1 [WP1130]
reaction with reducing agents DTT and TCEP [1]: significantly reacted with both DTT and TCEP

Compound: N#CSc1cc(SC#N)c(N)nc1N [PR-619]
number of DUBs inhibited (panel of 32 DUBs; of the 32 tested DUBs): 27

Compound: N#Cc1nc2c(nc1C#N)-c1ccc(Cl)cc1C2=O [HBX 41,108]
number of DUBs inhibited more than 70% (panel of 32 DUBs; of the 32 DUBs tested, at 5 μM): 25

potency for USP7 relative to the second most sensitive DUB on the panel (USP21) (USP7): five- to eightfold higher potency
Compound: Cc1ccc(S(=O)(=O)/C=C/C#N)cc1 [BAY 11-7082]

potency for USP7 relative to the second most sensitive DUB on the panel (USP21) (USP7): five- to eightfold higher potency
potency for USP7 relative to HBX 41,108 (USP7; ratio of IC50 values, 0.08 μM versus 5.97 μM): 70 fold
Compound: Cc1ccc(S(=O)(=O)c2ccc([N+](=O)[O-])o2)cc1 [NSC 697923]
